Data set [1] is described as follows: Metabolic stability in pooled human liver microsomes. Particulars: human, pooled human liver microsomes, pooled human liver microsomes 0.5 mg/mL, 1 μM test compound, 37° C., * rows = mean of two runs. Type of data set: in vitro ADME. The protocol: Pooled human liver microsomes in PBS at a concentration of 0.5 mg/mL was incubated with or without 1 mM NADPH for 70 min at 37° C. Test compound was added after 10 minutes to a final concentration of 1 μM. Samples were withdrawn at 0, 5, 15 and 60 minutes and added to test tubes containing acetonitrile, to stop the reaction, and with terfenadine, used as internal standard. After centrifugation at 10 000×g for 5 minutes the supernatant was diluted 1:1 with 1% formic acid. Samples were separated on a reverse phase column and detected by triple quadrupole MSMS (Agilant model 6540). The concentration of the parent compound at the different time points was measured with an external standard curve using terfenadine as internal standard and the initial metabolic rate in the presence or absence of NADPH calculated.
In general terms: Liver microsomes are a subcellular fraction often used to study metabolism.

The next data set addresses T1, CYP1A2 (Homo sapiens, UniProt P05177).
T1 construct: isoform-specific substrates incubated with human liver microsomes; tissue Eurofins ITEMG232 (protocol number); host or cells: human liver microsomes
Kind of data set: in vitro. Type of data set: in vitro ADME. Particulars: human liver microsomes, substrate phenacetin; for inhibition at 10 µM: human, microsomes, read-out: CYP1A2 Inh %.

For another data set, the target named is T2, CYP2B6 (Homo sapiens, UniProt P20813).
T2 construct: isoform-specific substrates incubated with human liver microsomes; tissue Eurofins ITEMG232 (protocol number); host or cells: human liver microsomes
T2 sequence (P20813 1-491): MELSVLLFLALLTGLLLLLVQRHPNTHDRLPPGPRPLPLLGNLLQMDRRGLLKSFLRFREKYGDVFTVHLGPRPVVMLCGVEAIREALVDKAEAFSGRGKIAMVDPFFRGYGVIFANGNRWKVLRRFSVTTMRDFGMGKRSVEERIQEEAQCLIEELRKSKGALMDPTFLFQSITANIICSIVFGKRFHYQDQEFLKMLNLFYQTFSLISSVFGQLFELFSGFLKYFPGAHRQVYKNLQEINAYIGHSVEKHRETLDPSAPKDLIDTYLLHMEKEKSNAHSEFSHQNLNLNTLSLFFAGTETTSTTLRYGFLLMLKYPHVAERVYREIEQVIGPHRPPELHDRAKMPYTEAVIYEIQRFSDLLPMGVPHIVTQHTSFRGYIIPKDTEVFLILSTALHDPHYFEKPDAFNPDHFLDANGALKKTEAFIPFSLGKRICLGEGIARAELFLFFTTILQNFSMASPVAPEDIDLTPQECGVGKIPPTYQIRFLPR
Kind of data set: CYP inhibition in human liver microsomes (Eurofins ITEMG232). Type of data set: in vitro ADME. Particulars: probe bupropion, substrate bupropion, read-out: CYP2B6 Inh %.

In a further data set the target is T3, CYP2C19 (Homo sapiens, UniProt P33261).
T3 construct: isoform-specific substrates incubated with human liver microsomes; tissue Eurofins ITEMG232 (protocol number); host or cells: human liver microsomes
The description is as above. Type of data set: in vitro ADME. The settings on record: substrate omeprazole; for inhibition at 10 µM: human, probe omeprazole, read-out: CYP2C19 Inh %.

Another data set addresses T4, CYP2C8 (Homo sapiens, UniProt P10632).
T4 construct: isoform-specific substrates incubated with human liver microsomes; tissue Eurofins ITEMG232 (protocol number); host or cells: human liver microsomes
T4 sequence (P10632 1-490): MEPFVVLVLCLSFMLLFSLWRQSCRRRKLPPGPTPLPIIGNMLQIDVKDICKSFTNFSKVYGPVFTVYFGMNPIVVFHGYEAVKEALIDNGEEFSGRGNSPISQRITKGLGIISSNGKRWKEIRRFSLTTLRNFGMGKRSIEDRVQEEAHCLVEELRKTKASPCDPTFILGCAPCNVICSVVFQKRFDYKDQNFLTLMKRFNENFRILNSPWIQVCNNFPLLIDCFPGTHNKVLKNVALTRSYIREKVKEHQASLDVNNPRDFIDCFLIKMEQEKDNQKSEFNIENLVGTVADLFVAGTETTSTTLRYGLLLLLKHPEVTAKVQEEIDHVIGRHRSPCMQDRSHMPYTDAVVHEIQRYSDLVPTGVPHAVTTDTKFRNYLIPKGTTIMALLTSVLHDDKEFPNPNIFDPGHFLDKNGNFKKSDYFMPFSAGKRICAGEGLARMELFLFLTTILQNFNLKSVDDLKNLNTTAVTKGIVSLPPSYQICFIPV
The data set is described as above. Type of data set: in vitro ADME. The settings on record: substrate paclitaxel and amodiaquine; for inhibition at 10 µM: human, probe paclitaxel and amodiaquine, read-out: CYP2C8 Inh %.

The next data set has as its target T5, CYP2D6 (Homo sapiens, UniProt P10635).
T5 construct: isoform-specific substrates incubated with human liver microsomes; tissue Eurofins ITEMG232 (protocol number); host or cells: human liver microsomes
Described as above. Type of data set: in vitro ADME. The settings on record: probe dextromethorphan, substrate dextromethorphan, read-out: CYP2D6 Inh %.

For another data set, the system named is CYP3A4&5. Kind of data set: in vitro. The settings on record: human, human liver microsomes, probe testosterone.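 Note: Read-out is the metabolite generated from the probe substrate, quantified as HPLC-MS/MS peak area once incubation ends.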
In a further data set the target is CYP2C9 (Homo sapiens, UniProt P11712). Kind of data set: CYP inhibition in human liver microsomes (Eurofins ITEMG232). Type of data set: in vitro ADME. The arrangement: isoform-specific substrates incubated with human liver microsomes; tissue Eurofins ITEMG232 (protocol number); host or cells: human liver microsomes. Particulars: substrate diclofenac; for inhibition at 10 µM: human, probe diclofenac, read-out: CYP2C9 Inh %.

A further data set has as its target CYP3A4 (Homo sapiens, UniProt P08684). Kind of data set: CYP inhibition in human liver microsomes (Eurofins ITEMG232), midazolam substrate. The settings on record: for inhibition at 10 µM: human, probe midazolam, read-out: CYP3A4 midazolam Inh %. Type of data set: in vitro ADME. The arrangement: isoform-specific substrates incubated with human liver microsomes; tissue Eurofins ITEMG232 (protocol number); host or cells: human liver microsomes.

The target of data set [2] is T6, human recombinant AT2 receptor (Homo sapiens, UniProt P50052).
T6 construct: purchased Eurofins ITEM26 (protocol number)
T6 sequence (P50052 1-363): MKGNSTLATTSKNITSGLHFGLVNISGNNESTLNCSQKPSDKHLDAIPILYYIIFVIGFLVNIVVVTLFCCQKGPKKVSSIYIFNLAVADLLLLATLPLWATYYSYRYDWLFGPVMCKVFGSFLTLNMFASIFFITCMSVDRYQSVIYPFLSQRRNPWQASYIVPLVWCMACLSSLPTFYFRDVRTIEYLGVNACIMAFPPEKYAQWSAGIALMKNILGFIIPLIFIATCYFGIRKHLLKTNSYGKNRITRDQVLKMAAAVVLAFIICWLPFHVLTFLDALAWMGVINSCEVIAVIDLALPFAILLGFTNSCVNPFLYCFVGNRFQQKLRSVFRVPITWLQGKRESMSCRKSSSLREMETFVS
Kind of data set: Binding to AT2 receptor, radiometric scintillation assay (Eurofins ITEM26). The settings on record: ligand 125I CGP 42112A, * rows = mean of runs.

Setting [3] is: with 1 mM NADPH, read-out: T1/2, + NaDPH.
Setting [4] is: without NADPH, read-out: T1/2, no NaDPH.

Broadly, the Ki is the equilibrium dissociation constant of an inhibitor or competing ligand from its target. In general, IC50 refers to the concentration that inhibits the measured activity by half.

Each structure is given as a SMILES string. Where “and” joins values, the source holds several entries; their conditions need not be identical. Equal entries are not always repeated. Where two headings read alike, the source gives them in different places.

Sequence of CYP2C9 (P11712 whole entry, canonical isoform): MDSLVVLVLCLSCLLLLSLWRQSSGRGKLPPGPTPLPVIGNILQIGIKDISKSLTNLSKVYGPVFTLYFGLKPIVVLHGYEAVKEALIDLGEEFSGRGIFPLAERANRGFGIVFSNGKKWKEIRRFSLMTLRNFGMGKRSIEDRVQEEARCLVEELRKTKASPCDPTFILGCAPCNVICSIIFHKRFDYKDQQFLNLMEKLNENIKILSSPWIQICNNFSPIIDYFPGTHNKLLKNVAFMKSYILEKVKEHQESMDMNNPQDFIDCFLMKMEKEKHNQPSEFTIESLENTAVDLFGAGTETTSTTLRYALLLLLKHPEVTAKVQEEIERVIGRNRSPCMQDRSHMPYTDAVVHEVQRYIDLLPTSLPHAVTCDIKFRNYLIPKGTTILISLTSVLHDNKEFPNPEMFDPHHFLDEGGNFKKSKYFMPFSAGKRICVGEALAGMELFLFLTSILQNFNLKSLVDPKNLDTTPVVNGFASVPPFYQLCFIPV
Sequence of CYP3A4 (P08684 whole entry, canonical isoform): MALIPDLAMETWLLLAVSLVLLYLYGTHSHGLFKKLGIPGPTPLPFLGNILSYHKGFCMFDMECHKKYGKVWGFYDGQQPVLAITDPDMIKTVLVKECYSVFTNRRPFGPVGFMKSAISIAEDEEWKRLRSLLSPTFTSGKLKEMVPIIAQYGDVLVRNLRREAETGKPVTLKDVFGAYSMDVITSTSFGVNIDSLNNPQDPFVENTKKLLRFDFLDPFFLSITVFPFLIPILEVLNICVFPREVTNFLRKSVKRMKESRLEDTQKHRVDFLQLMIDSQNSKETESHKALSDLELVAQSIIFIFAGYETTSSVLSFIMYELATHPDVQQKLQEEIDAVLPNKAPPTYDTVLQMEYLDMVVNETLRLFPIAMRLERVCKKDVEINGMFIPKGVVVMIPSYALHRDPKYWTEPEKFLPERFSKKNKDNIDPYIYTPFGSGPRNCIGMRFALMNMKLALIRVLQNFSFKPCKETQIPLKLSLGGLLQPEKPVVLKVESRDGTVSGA
T5 sequence (P10635 whole entry, canonical isoform): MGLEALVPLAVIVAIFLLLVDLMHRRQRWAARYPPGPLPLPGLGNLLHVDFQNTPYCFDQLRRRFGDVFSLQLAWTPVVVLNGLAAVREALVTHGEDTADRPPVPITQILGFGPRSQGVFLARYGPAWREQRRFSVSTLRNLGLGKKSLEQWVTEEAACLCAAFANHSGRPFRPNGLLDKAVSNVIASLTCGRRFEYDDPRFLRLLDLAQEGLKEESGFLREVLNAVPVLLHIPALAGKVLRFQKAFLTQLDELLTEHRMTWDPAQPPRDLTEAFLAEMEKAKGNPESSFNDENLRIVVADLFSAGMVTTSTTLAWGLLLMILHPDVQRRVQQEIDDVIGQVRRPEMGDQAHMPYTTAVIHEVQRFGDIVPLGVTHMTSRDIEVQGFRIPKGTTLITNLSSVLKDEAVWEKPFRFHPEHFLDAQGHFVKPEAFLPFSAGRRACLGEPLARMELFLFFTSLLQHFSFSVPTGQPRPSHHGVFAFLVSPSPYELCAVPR
T1 sequence (P05177 whole entry, canonical isoform): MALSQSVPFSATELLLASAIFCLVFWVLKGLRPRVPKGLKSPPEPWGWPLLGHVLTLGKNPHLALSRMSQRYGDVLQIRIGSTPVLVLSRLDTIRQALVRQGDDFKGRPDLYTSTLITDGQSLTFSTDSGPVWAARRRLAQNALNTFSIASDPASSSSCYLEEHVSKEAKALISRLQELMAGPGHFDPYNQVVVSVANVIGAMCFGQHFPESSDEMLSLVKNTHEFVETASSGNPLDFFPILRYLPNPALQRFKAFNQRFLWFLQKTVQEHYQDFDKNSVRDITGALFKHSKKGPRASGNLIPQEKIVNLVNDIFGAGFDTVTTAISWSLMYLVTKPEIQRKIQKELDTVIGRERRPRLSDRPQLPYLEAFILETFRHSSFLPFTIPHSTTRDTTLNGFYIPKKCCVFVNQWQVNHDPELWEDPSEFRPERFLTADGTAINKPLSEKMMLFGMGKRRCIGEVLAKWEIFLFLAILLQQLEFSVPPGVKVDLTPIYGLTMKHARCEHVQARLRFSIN
T3 sequence (P33261 whole entry, canonical isoform): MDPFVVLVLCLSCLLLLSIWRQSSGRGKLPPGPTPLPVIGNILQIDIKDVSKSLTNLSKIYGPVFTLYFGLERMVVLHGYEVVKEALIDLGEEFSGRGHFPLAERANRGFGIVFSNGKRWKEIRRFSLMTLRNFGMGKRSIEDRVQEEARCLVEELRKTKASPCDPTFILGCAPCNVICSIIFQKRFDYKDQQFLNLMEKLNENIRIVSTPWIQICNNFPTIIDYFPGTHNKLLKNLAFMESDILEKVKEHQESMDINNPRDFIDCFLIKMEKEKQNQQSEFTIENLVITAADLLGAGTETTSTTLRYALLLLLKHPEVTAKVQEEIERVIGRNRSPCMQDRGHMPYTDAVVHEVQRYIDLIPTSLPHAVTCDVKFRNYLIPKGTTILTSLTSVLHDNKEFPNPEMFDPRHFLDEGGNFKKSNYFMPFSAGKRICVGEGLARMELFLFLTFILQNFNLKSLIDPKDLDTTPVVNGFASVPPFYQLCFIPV
Description for CYP1A2: The following substrates were used; CYP1A phenacetin, CYP2B36 bupropion, CYP2C8 paclitaxel and amodiaquine, CYP2C9 diclofenac, CYP2C19 omeprazole, CYP2D6 dextromethorphan, CYP3A midazolam and testosterone.
At the end of the incubation, the formation of metabolite was monitored by HPLC-MS/MS as the peak area response.

In the case of `CC(C)Cc1ccc(S(=O)(=O)Nc2ncc(Cl)cn2)c(-c2ccc(Cn3ccnc3C(C)(C)C)cc2)c1` [Example 2, 4′-((2-(tert-Butyl)-1H-imidazol-1-yl)methyl)-N-(5-chloropyrimidin-2-yl)-5-isobutyl-[1,1′-biphenyl]-2-sulfonamide], the half-life at 1 μM in data set [1] (setting [3]) and in [1] (setting [4]) was greater than 1 h each time. For the same compound, the inhibition at 10 µM at CYP1A2 came out at 84%; on CYP2B6, 14%; on CYP2C19, 37%; on CYP2C8, 88.7%; at CYP2D6, 5.7%; with CYP3A4&5, 3.3%. Also, the inhibition at 10 µM at CYP2C9 is 46%; at CYP3A4, 36%.

For `CC(C)Cc1ccc(S(=O)(=O)Nc2nccs2)c(-c2ccc(Cn3ccnc3C(C)(C)C)cc2)c1` [Example 5, 4′-((2-(tert-Butyl)-1H-imidazol-1-yl)methyl)-5-isobutyl-N-(thiazol-2-yl)-[1,1′-biphenyl]-2-sulfonamide], the half-life at 1 μM was 0.717 h in data set [1] (setting [3]) and greater than 1 h in data set [1] (setting [4]). Moreover, the inhibition at 10 µM came to 19.2% on CYP1A2; 56.5% at CYP2B6; 70.1% on CYP2C19; 92.1% on CYP2C8; 44.5% on CYP2D6; 56% in the data set with CYP3A4&5. Further, the figures for the inhibition at 10 µM on CYP2C9 and at CYP3A4 were 72.9% and -11.4%, respectively.

As to `CC(C)Cc1ccc(S(=O)(=O)Nc2ncc(C#N)cn2)c(-c2ccc(Cn3ccnc3C(C)(C)C)cc2)c1` [Example 6, 4′-((2-(tert-Butyl)-1H-imidazol-1-yl)methyl)-N-(5-cyanopyrimidin-2-yl)-5-isobutyl-[1,1′-biphenyl]-2-sulfonamide], the “CYP1A2 Inh %” value at CYP1A2 (10 μM) is 36.2% and 65.6%. In addition, the “CYP2C19 Inh %” value on CYP2C19 (10 μM) is 38.6% and 66.6%. Also, the “CYP2C8 Inh %” value on CYP2C8 (10 μM) was 49.2% and 95.6%. The “CYP2C9 Inh %” value at CYP2C9 (10 μM) is 37.1% and 71.9%. Further, at CYP3A4 (10 μM), the “CYP3A4 midazolam Inh %” value is 28.2% and 48.5%.

In the case of `COc1ncncc1NS(=O)(=O)c1ccc(CC(C)C)cc1-c1ccc(Cn2ccnc2C(C)(C)C)cc1` [Example 18, 4′-((2-(tert-Butyl)-1H-imidazol-1-yl)methyl)-5-isobutyl-N-(4-methoxypyrimidin-5-yl)-[1,1′-biphenyl]-2-sulfonamide], the half-life at 1 μM in data set [1] (setting [3]) is 0.117 h; in data set [1] (setting [4]), greater than 1 h. For the same compound, the inhibition at 10 µM at CYP1A2 was 9.7%; at CYP2B6 it was 40.4%; at CYP2C19, 87.8%; on CYP2C8, 59.7%; on CYP2D6, 16.4%; in the data set on CYP3A4&5, 97.9%. Also, the figures for the inhibition at 10 µM on CYP2C9 and at CYP3A4 were 90.8% and 98.4%, respectively.

With `COc1ncnc(OC)c1NS(=O)(=O)c1ccc(CC(C)C)cc1-c1ccc(Cn2ccnc2C(C)(C)C)cc1` [Example 19, 4′-((2-(tert-Butyl)-1H-imidazol-1-yl)methyl)-N-(4,6-dimethoxypyrimidin-5-yl)-5-isobutyl-[1,1′-biphenyl]-2-sulfonamide], the results for the half-life at 1 μM in data set [1] (setting [3]) and in [1] (setting [4]) were 0.15 h and greater than 1 h, respectively. Further, the inhibition at 10 µM came out at 21.7% at CYP1A2; 27.5% at CYP2B6; 74.8% on CYP2C19; 54.3% on CYP2C8; 45.2% on CYP2D6; 63% in the data set on CYP3A4&5. Moreover, the values for the inhibition at 10 µM on CYP2C9 and at CYP3A4 were 87.6% and 73%, respectively.

In the case of `Cc1nccn1Cc1ccc(-c2cc(CC(C)C)sc2S(=O)(=O)Nc2ncccn2)cc1F` [Example 44, 3-(3-Fluoro-4-((2-methyl-1H-imidazol-1-yl)methyl)phenyl)-5-isobutyl-N-(pyrimidin-2-yl)thiophene-2-sulfonamide], the half-life at 1 μM in [1] (setting [3]) and in data set [1] (setting [4]) was greater than 1 h each time. Moreover, the inhibition at 10 µM on CYP1A2 is 33%; on CYP2B6 it was 14%; at CYP2C19, 64%; at CYP2C8, 43%; on CYP2D6 it was 9%; in the data set on CYP3A4&5 it was 67%. Further, the figures for the inhibition at 10 µM on CYP2C9 and on CYP3A4 were 30% and 35%, respectively.

As to `CCc1nccn1Cc1ccc(-c2cc(CC(C)C)sc2S(=O)(=O)Nc2ncccn2)cc1F` [Example 45, 3-(4-((2-Ethyl-1H-imidazol-1-yl)methyl)-3-fluorophenyl)-5-isobutyl-N-(pyrimidin-2-yl)thiophene-2-sulfonamide], the half-life at 1 μM in [1] (setting [3]) and in [1] (setting [4]) was greater than 1 h each time. In addition, the inhibition at 10 µM came out at 54% on CYP1A2; 16% at CYP2B6; 65% at CYP2C19; 64% on CYP2C8; 13% at CYP2D6; 62% in the data set on CYP3A4&5. In addition, the inhibition at 10 µM at CYP2C9 amounted to 20%; at CYP3A4, 15%.

As to `CC(C)Cc1cc(-c2ccc(Cn3ccnc3C3CC3)cc2)c(S(=O)(=O)Nc2ncccn2)s1` [Example 52, 3-(4-((2-Cyclopropyl-1H-imidazol-1-yl)methyl)phenyl)-5-isobutyl-N-(pyrimidin-2-yl)thiophene-2-sulfonamide], the half-life at 1 μM in data set [1] (setting [3]) and in data set [1] (setting [4]) was greater than 1 h each time. The inhibitory constant (Ki) in data set [2] (seven-point dose-response curve) is 0.77 nM. For the same compound, in [2] (test compounds at 1, 10, 100 and 1000 nM, read-out: AT2 GraFit IC50), the IC50 was 1.53 nM.

For the origin of these results see patent publication US12441718B2, “Selective angiotensin II compounds” (VICORE PHARMA AB, priority 2021, dated 2025).
